Assay results as given in ChEMBL document CHEMBL5500332, “Structure-based approaches for the design of 6-aryl-1-(3,4,5-trimethoxyphenyl)-1H-benzo[d][1,2,3]triazoles as tubulin polymerization inhibitors” (Eur J Med Chem, 2024).
Active and inactive are the calls of the source. The calls are words filed in the database; no cut-off is given here.

Experiments:
4T1 [1] = assay: Antitumor activity against mouse 4T1 cells xenografted in BALB/c mouse model assessed as tumor growth inhibition rate at 15 mg/kg, iv measured every two days for 2 weeks relative to control; type: functional; settings: 4T1, 336 h, read-out: TGI
MCF7 [2] = assay: Induction of apoptosis in human MCF7 cells assessed as viable cells at 60 nM incubated for 48 hrs by annexin V-FITC and PI staining based flow cytometry analysis (reference value: 92.4%); type: functional; settings: read-out: Activity
[3] = Toxicity in BALB/c mouse assessed as effect on heart at 5 to 15 mg/kg, iv measured after 2 weeks by H and E staining based analysis; type: organism-based; settings: in vivo, 336 h, dose 5-15 mg/kg
MCF7 [4] = assay: Induction of apoptosis in human MCF7 cells assessed as late apoptotic cells at 20 nM incubated for 48 hrs by annexin V-FITC and PI staining based flow cytometry analysis (reference value: 2.22%); type: functional
MCF7 [5] = assay: Antiproliferative activity against human MCF7 cells measured after 72 hrs by MTT assay; type: functional, cell-based; settings: MCF7, 72 h
MCF7 [6] = assay: Induction of cell cycle arrest in human MCF7 cells assessed as accumulation of cells at G2/M phase at 40 nM incubated for 24 hrs by PI staining based flow cytometry analysis (reference value: 14.36%); type: functional
MCF7 [7] = assay: Induction of apoptosis in human MCF7 cells assessed as viable cells at 20 nM incubated for 48 hrs by annexin V-FITC and PI staining based flow cytometry analysis (reference value: 92.4%); type: functional; settings: read-out: Activity
[8] = Toxicity in BALB/c mouse assessed as effect on liver at 5 to 15 mg/kg, iv measured after 2 weeks by H and E staining based analysis; type: organism-based; settings: in vivo, 336 h, dose 5-15 mg/kg
A549 = assay: Antiproliferative activity against human A549 cells measured after 72 hrs by MTT assay; type: functional, cell-based; settings: A549, 72 h
SGC-7901 = assay: Antiproliferative activity against human SGC-7901 cells measured after 72 hrs by MTT assay; type: functional, cell-based; settings: SGC-7901, 72 h
MCF7 [9] = assay: Induction of cell cycle arrest in human MCF7 cells assessed as accumulation of cells at S phase at 40 nM incubated for 24 hrs by PI staining based flow cytometry analysis (reference value: 14.58%); type: functional
MCF7 [10] = assay: Induction of apoptosis in human MCF7 cells assessed as early apoptotic cells at 40 nM incubated for 48 hrs by annexin V-FITC and PI staining based flow cytometry analysis (reference value: 2.17%); type: functional
[11] = Toxicity in BALB/c mouse assessed as effect on lung at 5 to 15 mg/kg, iv measured after 2 weeks by H and E staining based analysis; type: organism-based; settings: in vivo, 336 h, dose 5-15 mg/kg
[12] = Toxicity in BALB/c mouse assessed as effect on spleen at 5 to 15 mg/kg, iv measured after 2 weeks by H and E staining based analysis; type: organism-based; settings: in vivo, 336 h, dose 5-15 mg/kg
MCF7 [13] = assay: Induction of apoptosis in human MCF7 cells assessed as viable cells at 40 nM incubated for 48 hrs by annexin V-FITC and PI staining based flow cytometry analysis (reference value: 92.4%); type: functional; settings: read-out: Activity
MCF7 [14] = assay: Induction of apoptosis in human MCF7 cells incubated for 48 hrs by annexin V-FITC and PI staining based flow cytometry analysis; type: functional, cell-based; settings: dose 20-60 nM
MCF7 [15] = assay: Inhibition of colony formation in human MCF7 cells measured after 24 hrs by crystal violet staining based analysis; type: functional, cell-based; settings: dose 20-40 nM
MCF7 [16] = assay: Induction of cell cycle arrest in human MCF7 cells assessed as accumulation of cells at S phase at 20 nM incubated for 24 hrs by PI staining based flow cytometry analysis (reference value: 14.58%); type: functional
4T1 [17] = assay: Antitumor activity against mouse 4T1 cells xenografted in BALB/c mouse model assessed as tumor growth inhibition rate at 5 mg/kg, iv measured every two days for 2 weeks relative to control; type: functional; settings: 4T1, 336 h, read-out: TGI
Tubulin (Homo sapiens) [18] = target: T1, Tubulin (Homo sapiens) (UniProt P68371+Q9H4B7+P0DPH7+P68366+Q13509+Q71U36+P04350+Q3ZCM7+P07437+P68363+Q9BQE3+Q6PEY2+Q13885+Q9BVA1+Q9BUF5); assay: Disruption of microtubule network in human MCF7 cells incubated for 24 hrs by immunofluorescence staining based confocal microscopic analysis; type: cell-based
MCF7 [19] = assay: Induction of apoptosis in human MCF7 cells assessed as necrotic cells at 20 nM incubated for 48 hrs by annexin V-FITC and PI staining based flow cytometry analysis (reference value: 2.25%); type: functional
MCF7 [20] = assay: Induction of cell cycle arrest in human MCF7 cells assessed as accumulation of cells at G0/G1 phase at 20 nM incubated for 24 hrs by PI staining based flow cytometry analysis (reference value: 69.67%); type: functional
[21] = Toxicity in BALB/c mouse assessed as effect on kidney at 5 to 15 mg/kg, iv measured after 2 weeks by H and E staining based analysis; type: organism-based; settings: in vivo, 336 h, dose 5-15 mg/kg
MCF7 [22] = assay: Induction of apoptosis in human MCF7 cells assessed as necrotic cells at 40 nM incubated for 48 hrs by annexin V-FITC and PI staining based flow cytometry analysis (reference value: 2.25%); type: functional
MCF7 [23] = assay: Induction of cell cycle arrest in human MCF7 cells assessed as accumulation of cells at G2/M phase at 60 nM incubated for 24 hrs by PI staining based flow cytometry analysis (reference value: 14.36%); type: functional
MCF7 [24] = assay: Induction of cell cycle arrest in human MCF7 cells assessed as accumulation of cells at G0/G1 phase at 60 nM incubated for 24 hrs by PI staining based flow cytometry analysis (reference value: 69.67%); type: functional
MCF7 [25] = assay: Induction of cell cycle arrest in human MCF7 cells assessed as accumulation of cells at G2/M phase at 20 nM incubated for 24 hrs by PI staining based flow cytometry analysis (reference value: 14.36%); type: functional
MCF7 [26] = assay: Induction of cell cycle arrest in human MCF7 cells assessed as accumulation of cells at S phase at 60 nM incubated for 24 hrs by PI staining based flow cytometry analysis (reference value: 14.58%); type: functional
MCF7 [27] = assay: Induction of cell cycle arrest in human MCF7 cells incubated for 24 hrs by PI staining based flow cytometry analysis; type: functional; settings: dose 20-60 nM
MCF7 [28] = assay: Induction of apoptosis in human MCF7 cells assessed as early apoptotic cells at 20 nM incubated for 48 hrs by annexin V-FITC and PI staining based flow cytometry analysis (reference value: 2.17%); type: functional
Tubulin (Homo sapiens) [29] = target: T1, Tubulin (Homo sapiens); assay: Inhibition of tubulin polymerization (unknown origin) measured every 60 secs for 90 mins by microplate reader based analysis; type: protein-complex assay; settings: dose 1-8 µM
[30] = Toxicity in BALB/c mouse assessed as effect on body weight loss at 5 to 15 mg/kg, iv measured after 2 weeks; type: organism-based; settings: in vivo, 336 h, dose 5-15 mg/kg
MCF7 [31] = assay: Induction of cell cycle arrest in human MCF7 cells assessed as accumulation of cells at G0/G1 phase at 40 nM incubated for 24 hrs by PI staining based flow cytometry analysis (reference value: 69.67%); type: functional
[32] = Toxicity in BALB/c mouse assessed as drug tolerance at 5 to 15 mg/kg, iv measured after 2 weeks; type: organism-based; settings: in vivo, 336 h, dose 5-15 mg/kg
MCF7 [33] = assay: Inhibition of cell migration in human MCF7 cells at 20 to 40 nM incubated for 24 hrs by wound healing assay; type: functional, cell-based; settings: dose 20-40 nM
MCF7 [34] = assay: Inhibition of colony formation in human MCF7 cells at 60 nM measured after 24 hrs by crystal violet staining based analysis relative to control; type: functional
MCF7 [35] = assay: Induction of apoptosis in human MCF7 cells assessed as necrotic cells at 60 nM incubated for 48 hrs by annexin V-FITC and PI staining based flow cytometry analysis (reference value: 2.25%); type: functional
MCF7 [36] = assay: Induction of apoptosis in human MCF7 cells assessed as early apoptotic cells at 60 nM incubated for 48 hrs by annexin V-FITC and PI staining based flow cytometry analysis (reference value: 2.17%); type: functional
MCF7 [37] = assay: Induction of apoptosis in human MCF7 cells assessed as late apoptotic cells at 60 nM incubated for 48 hrs by annexin V-FITC and PI staining based flow cytometry analysis (reference value: 2.22%); type: functional
4T1 [38] = assay: Antiproliferative activity against mouse 4T1 cells measured after 72 hrs by MTT assay; type: functional, cell-based; settings: 4T1, 72 h
MCF7 [39] = assay: Induction of apoptosis in human MCF7 cells assessed as late apoptotic cells at 40 nM incubated for 48 hrs by annexin V-FITC and PI staining based flow cytometry analysis (reference value: 2.22%); type: functional

## COc1ccc(-c2ccc3nnn(-c4cc(OC)c(OC)c(OC)c4)c3c2)cc1O
4T1 [1]
  inhibition in vivo at 15 mg/kg: 68.5%
MCF7 [2]
  viability at 0.06 µM: 60.9%
[3]
  Activity: Non-Toxic
MCF7 [4]
  Activity: 8.16%
MCF7 [5]
  IC50: 20 nM
MCF7 [6]
  Activity: 26.14%
MCF7 [7]
  viability at 0.02 µM: 83.6%
[8]
  Activity: Non-Toxic
A549
  IC50: 45 nM
SGC-7901
  IC50: 14 nM
MCF7 [9]
  Activity: 34.21%
MCF7 [10]
  Activity: 24.9%
[11]
  Activity: Non-Toxic
[12]
  Activity: Non-Toxic
MCF7 [13]
  viability at 0.04 µM: 62.9%
MCF7 [14]
  Activity: Dose-Dependent Effect
MCF7 [15]
  inhibition: Dose-Dependent Effect
MCF7 [16]
  Activity: 22.71%
4T1 [17]
  inhibition in vivo at 5 mg/kg: 49.5%
Tubulin (Homo sapiens) [18]
  Activity: Active
MCF7 [19]
  Activity: 2.8%
MCF7 [20]
  Activity: 60.54%
[21]
  Activity: Non-Toxic
MCF7 [22]
  Activity: 2.07%
MCF7 [23]
  Activity: 50.23%
MCF7 [24]
  Activity: 27.42%
MCF7 [25]
  Activity: 14.84%
MCF7 [26]
  Activity: 21.52%
MCF7 [27]
  Activity: Dose-Dependent Effect
MCF7 [28]
  Activity: 5.47%
Tubulin (Homo sapiens) [29]
  inhibition: Dose-Dependent Effect
[30]
  Activity: Non-Toxic
MCF7 [31]
  Activity: 38.73%
[32]
  Activity: Non-Toxic
MCF7 [33]
  inhibition: Active
MCF7 [34]
  inhibition at 0.06 µM: 100%
MCF7 [35]
  Activity: 2.05%
MCF7 [36]
  Activity: 26.4%
MCF7 [37]
  Activity: 10.6%
4T1 [38]
  IC50: 32 nM
MCF7 [39]
  Activity: 10.1%
